The values below come from US20160279236A1, “USE OF RAPAMYCIN AS VACCINE ADJUVANT AND PREPARATION METHOD THEREFOR” (INSTITUT PASTEUR OF SHANGHAI, CHINESE ACADEMY OF SCIENCES, priority 2013, published 2016).

Experiment [1] has as its system immune response against HCV outer membrane protein E2. Briefly: HCV E2 protein immunization with adjuvants: T cell and antibody responses. The following applies: E2 protein 20 μg/mouse; Alum 200 μg, MPL 10 μg, rapamycin 100 μg per mouse; IFNγ ELISA of E2-stimulated spleen cells, FIG. 7A. The class given is in vivo, C57BL/6 mice. As to the method:
C57BL/6 mice were immunized using purified E2 protein (20 μg/mouse, bought from eEnzyme company, Cat No. HCV-E21b) as antigen in mixture with Alum (200 μg/mouse), MPL (10 μg/mouse), rapamycin (100 μg/mouse), MPL (10 µg/mouse)+rapamycin (100 μg/mouse) respectively, and after 4 weeks, were boosted by the same antigen+adjuvant program. 8 weeks after the secondary immunization, mice were immunized for one time with E2 protein (without MPL or rapamycin) (5 μg/mouse), and the mice were killed after 2 weeks. Spleen cells were taken to determine immune response of T cells (FIG. 7A), and serum was taken to determine antibody titers (FIG. 7B). The spleen cells (5×10^5 cells) were stimulated with 10 μg/ml of E2 protein. After 48 hours, the content of IFNγ in the supernatant was determined by enzyme linked immunosorbent assay (ELISA). […] Meanwhile, antibody response induced by the combination of rapamycin and MPL was also the best, which was better than MPL or alum alone (FIG. 7B).

The test system of a further experiment is BMDCs. Briefly: Cytokine production (ELISA) in LPS-stimulated BMDCs pre-treated with rapamycin. The format is cell-based, C57BL/6 mice. Here is the method:
Bone marrow stem cells from 6-8 weeks aged C57BL/6 mice were taken, and erythrocytes were removed by using ammonium chloride lysate (0.15 M NH4Cl, 1 mM […], 0.1 mM Na2EDTA, pH7.3), and then suspension-cultured at a cell density of 10^6 cells/mL in a dendritic cell (bone-marrow derived dendritic cell, BMDC) differentiation medium (formulation of which was: RPMI 1640 complete medium (comprising 5% (v/v) FBS and 1% (v/v) pen strep), with 20 ng/ml GM-CSF, 10 ng/ml IL-4, 2 mM L-glutamine and 200 μM β-mercaptoethanol being added). After differentiation for 7 days, the cells were purified with CD11c magnetic beads to obtain BMDCs. The purified BMDCs were resuspended in a fresh dendritic cell culture medium (10^6 cells/ml), and inoculated into 24-well plate with 500 μL per well 100 nM of rapamycin or DMSO (control) were used to pre-treat the cells for 1 hour, and then the cells were stimulated with 100 ng/ml LPS for 24 hours. The supernatant was taken and the amount of IL-12 was measured by ELISA.

The subject of experiment [2] is HBsAg-specific antibody titers. Put plainly: HBsAg homologous prime-boost immunization with adjuvants. The class given is in vivo, C57BL6 mice. Here is the method: HBsAg (5 μg/mouse) was respectively mixed with the following adjuvants or adjuvant combinations: rapamycin (100 μg/mouse)+MPL (10 μg/mouse), MPL (10 μg/mouse), rapamycin (100 μg/mouse) or Alum (200 μg/mouse)+MPL (10 μg/mouse) to immunize (primary immunization) C57BL6 mice. After 4 weeks, each group of mice was boosted according to the same program as the primary immunization. The mice were killed after two weeks, and serum was prepared for determining the content of HBsAg-specific IgG1, IgG2b and IgG2c.

The test system of experiment [3] is HBsAg-specific antibody and T cell responses. Briefly: HBsAg immunization with Compositions 1-3 (different amounts of rapamycin + MPL). The format is in vivo, mice. Here is the method:
Composition 1, comprising (dosage for one mouse): rapamycin 5 μg, MPL 10 μg, and PBS 0.2 ml;
Composition 2, comprising (dosage for one mouse): rapamycin 20 μg, MPL 10 μg, and PBS 0.2 ml;
Composition 3, comprising (dosage for one mouse): rapamycin 100 μg, MPL 10 μg, and PBS 0.2 mL.
Mice were immunized with Compositions 1-3 in mixture with HBsAg (5 μg, dosage for one mouse) respectively, and were boosted 3 weeks after the primary immunization. The mice were killed after one week, and the serum was prepared to determine the content of HBsAg-specific IgG1, IgG2b and IgG2c (FIG. 5). Meanwhile, spleen cells (5×10^5 cells) were respectively stimulated by using 10 μg/ml of CD8^+ T cell epitope peptide ([…] or VWLSVIWM) and CD4^+ T cell epitope peptide ([…]), and after 48 hours, enzyme linked immunosorbent assays (ELISA) was used to determine the content of IFNγ in the supernatant (FIG. 5b). […] Moreover, at all of the three concentrations, rapamycin has increased T cell response induced by MPL, especially the activation of CD4^+ and CD8^+ T cells which secrete IFN-γ (FIG. 5b).

For experiment [4], the system named is OVA-specific T cell responses and antibody responses. Briefly: Ovalbumin immunization of mice with adjuvants: OVA-specific T cell and antibody responses. The format is in vivo. As to the method: 6-8 weeks aged mice were primarily immunized by the inventors using intraperitoneal injection method, wherein Ovalbumin (10 μg/mouse) was used as antigen and PBS (negative control), MPL (10 μg/mouse, positive control), rapamycin (100 μg/mouse), rapamycin (100 μg/mouse)+MPL (10 μg/mouse) as adjuvant respectively, and were immunized again with ovalbumin (10 μg/mouse, without adjuvant) at 3 weeks. […] After 48 hours, enzyme linked immunosorbent assay (ELISA) was used to determine the content of IFNγ in the supernatant.

Where [5] appears, read: BMDCs, 100 nM rapamycin, 100 ng/ml LPS.
The mark [6] stands for this setting: after immunized for two times, HBsAg 5 μg/mouse, rapamycin 100 μg/mouse, serum two weeks after boost.
[7] abbreviates: 5 μg of rapamycin + MPL 10 μg, HBsAg 5 μg per mouse.
The mark [8] stands for this setting: blood 1 week after secondary immunization, single adjuvants vs negative control, combination vs MPL alone.

Entries after “also recorded” stand apart in the source; their conditions may differ.

On to `CO[C@H]1C[C@@H]2CC[C@@H](C)[C@@](O)(O2)C(=O)C(=O)N2CCCC[C@H]2C(=O)O[C@H]([C@H](C)C[C@@H]2CC[C@@H](O)[C@H](OC)C2)CC(=O)[C@H](C)/C=C(\C)[C@@H](O)[C@@H](OC)C(=O)[C@H](C)C[C@H](C)/C=C/C=C/C=C/1C` [rapamycin], for which the “immune response of IFN-γ secreting T cells against HCV E2” value in experiment [1] is given as “inferior effect”. Further, the “amount of IL-12, increase compared with the control group” value in the experiment on BMDCs (100 nM rapamycin pre-treatment 1 hour, 100 ng/ml LPS 24 hours, supernatant ELISA, DMSO control) was “more than 3 times”. Besides, in the experiment on BMDCs (setting [5]), the “LPS-induced IL-12 production” value is recorded as “enhanced; also recorded: promote”, the “induced-secretion of IL-23” value is listed as “remarkably increase; also recorded: enhanced; also recorded: promote” and the “production of IL-10” value is “inhibit the production; also recorded: inhibited”. The “LPS-induced IL-12 production” value in the experiment on BMDCs (BMDCs, 100 nM rapamycin, 100 ng/ml LPS, listed as Rapamycin) is recorded as “significantly enhance”. Moreover, in experiment [2] (setting [6]), the “HBsAg-induced antibody titers, IgG1” value is recorded as “significantly enhance”; the “HBsAg-induced antibody titers, IgG2b” value is on record as “significantly enhance”; the “HBsAg-induced antibody titers, IgG2c” value is “significantly enhance”. In addition, the “adjuvant activity of MPL” value in experiment [2] (homologous prime-boost immunization program, FIG. 6) is on record as “remarkably enhance”. For the same molecule, in experiment [3] (setting [7]), the “antibody titers induced by MPL” value is “significantly increase”, the “increase of secretion of IgG2b induced by MPL” value is reported as about 5 times and the “increase of secretion of IgG2c induced by MPL” value is about 5 times. Further, the “T cell response induced by MPL (IFN-γ secreting CD4+ and CD8+ T cells)” value in experiment [3] (all three amounts of rapamycin (5, 20, 100 μg) + MPL 10 μg, IFNγ ELISA of peptide-stimulated spleen cells) is “increased”. For the same molecule, the “HBsAg-specific antibody responses enhanced by MPL” value in experiment [3] (different amounts of rapamycin, FIG. 5a) is “increased”. The “antibodies induced by MPL” value in experiment [3] (rapamycin raised to 20 or 100 μg + MPL 10 μg, HBsAg 5 μg per mouse) was “further enhanced”. For the same molecule, in experiment [3] (rapamycin within the range of 5-100 μg), the “MPL-induced antibody titers and T cell response, dose dependence” value is on record as “dose-dependent manner”. Besides, in experiment [4] (setting [8]), the “OVA-specific IgG1 antibody titers” value is given as “relatively moderate”, the “OVA-specific IgG2b antibody titers” value is “relatively moderate; also recorded: enhanced” and the “OVA-specific IgG2c antibody titers” value is reported as “relatively moderate; also recorded: enhanced”. In experiment [4] (mice i.p., ovalbumin 10 μg, MPL 10 μg, rapamycin 100 μg per mouse, IFNγ ELISA of splenic cells stimulated with OVA-1, 48 hours), the “OVA-specific CD8+ T cell responses” value is “relatively moderate; also recorded: enhanced”. Besides, the “OVA-specific CD4+ (Th1) T cell responses” value in experiment [4] (mice i.p., ovalbumin 10 μg, MPL 10 μg, rapamycin 100 μg per mouse, IFNγ ELISA of splenic cells stimulated with OVA-II, 48 hours) was “relatively moderate; also recorded: enhanced”.
